Test results taken from patent publication US20240368278A1, “GENERATION AND CHARACTERIZATION OF NOVEL TIM-4 BINDING AGENTS” (Heat Biologics, Inc., priority 2021, published 2024).
Entries after “also recorded” stand apart in the source; their conditions may differ.

Assays:
THP-1 cells [1] = experiment: Phagocytosis assay in THP-1 cells with phosphatidylserine lipid microparticles; type: cell-based; conditions: for inhibition of phagocytosis (RFU): phosphatidylserine lipid microparticles, peptides at 100 μg/mL, 3 h under serum starvation, vs untreated control
From the text: FIG. 2A, FIG. 2B, and FIG. 2C show an image of the THP-1 experimental workflow, an image of THP-1 cells undergoing phagocytosis, and a graph showing data from the phagocytosis experiment. FIG. 2A is an image of the experimental workflow. FIG. 2B is a graph showing data from the peptides derived from the CDR3 regions of antibodies tested in the phagocytosis assay. In FIG. 2B, along the x-axis, “156-1G” refers to SEQ ID NO: 7, “156-IH” refers to SEQ ID NO: 11, “156-2B” refers to SEQ ID NO: 3, and “156-2F” refers to SEQ ID NO: 15. In this assay, cells were treated with the indicated treatments, and cytochalasin D (20 μM) was used as a control to show phagocytosis failure. CDR3 regions from antibodies that bound to Tim-4 were synthesized as peptides, and subsequently tested. The data shown in FIG. 2B represents peptides tested at 100 μg/mL. Statistics were performed using a one-way ANOVA followed by a multiple comparison test comparing each treatment to “untreated” control (p>0.05=*, ns=not significant). […] Phosphatidylserine (“PS”) lipid microparticles are shown and superimposed onto brightfield images of THP-1 cells. […] Scale bar represents 150 μm.
Phagocytosis assays using the developed peptides derived from the CDR3 regions of antibodies (e.g., SEQ ID NO: 35, SEQ ID NO: 36, SEQ ID NO: 37, and SEQ ID NO: 38) and THP-1 cells were completed by following the experimental outline shown in FIG. 2A. In these experiments, 1×10^5 cells were seeded on a 96 well plate, and the synthesized peptides (e.g., SEQ ID NO: 35, SEQ ID NO: 36, SEQ ID NO: 37, and SEQ ID NO: 38) were then added onto the plate for three hours under serum starvation. Phosphatidylserine lipid microparticles were then added in media containing 10% FBS. Cells were then washed 3 to 5 times with PBS, and the level of fluorescence (e.g., relative fluorescence units, “RFU”) was then analyzed with a plate reader. In these experiments, cytochalasin D (20 μM) was used as a control to show phagocytosis failure. […]

Tim4-Hek293-FT cells = experiment: Phagocytosis assay in Tim4-Hek293-FT cell line; type: cell-based; conditions: for inhibition of phagocytosis (RFU): Tim4-Hek293-FT cells, 96 well plate, vs untreated control
Method: Stable Tim-4 expression was confirmed by RT-PCR using primers against Tim-4 mRNA and Gapdh mRNA (control). […] Scale bar represents 300 μm.
In FIG. 5A, the Tim4-Hek293-FT cells were plated in a 96 well plate, followed by the phagocytosis assay. Statistical analysis was performed using a t-test (p>0.05=*). Relative fluorescence units (“RFU”) were normalized to fluorescent intensity at hour zero. In FIG. 5B, Tim4-Hek293-FT cells were fixed and immunolabeled against Tim-4 and counterstained with DAPI. […] Arrows indicate phosphatidylserine bead. Scale bar represents 75 μm.
In FIG. 7A, cells were plated on a 96 well plate and treatments were performed similar to FIG. 2A. Statistics were performed using a one-way ANOVA followed by a multiple comparison test comparing each treatment to the “untreated” control (p>0.05=*, p>0.01=**, p>0.001=***). […] In FIG. 7A, “116-117 1A” is SEQ ID NO: 30 ([…]), “116-117 2C” is SEQ ID NO: 23 ([…]), “116-117 2D” is SEQ ID NO: 24 ([…]), “116-117 2F” is SEQ ID NO: 25 ([…]), “116-117 3B” is SEQ ID NO: 26 ([…]), “116-117 3C” is SEQ ID NO: 27 ([…]), “116-117 3E” is SEQ ID NO: 17 ([…]), “116-117 3F” is SEQ ID NO: 28 ([…]), “116-117 4A” is SEQ ID NO: 22 ([…]), and “116-117 4G” is SEQ ID NO: 29 ([…]). […] Scale bar represents 150 μm.
To further validate the function of the synthesized peptides, a Tim4-Hek293-FT cell line was developed (FIG. 4A).
A phagocytosis assay, as previously described above and following the experimental outline of FIG. 2A, was performed in the Tim4-Hek293-FT cells. In these experiments, cytochalasin D (20 μM) was used as a control to show phagocytosis failure. […] The inhibition of phagocytosis by SEQ ID NO: 17 is also shown in the immunofluorescence images of FIG. 7B.

THP-1 cells [2] = experiment: Phagocytosis assay in THP-1 cells with carboxylate beads; type: cell-based; conditions: 96 well plate, vs untreated control
Method: FIG. 3A and FIG. 3B are graphs showing dose response curves of the phagocytosis assay in THP-1 cells using both PS beads and carboxylate beads.
In FIG. 8A, cells were plated on a 96 well plate and treatments were performed with carboxylate beads. Statistics were performed using a one-way ANOVA followed by a multiple comparison test comparing each treatment to the “untreated” control (p>0.05=*, p>0.01=**, p>0.001=***, p>0.0001=****). FIG. 8B are representative images of the phagocytosis assay. […] Scale bare represents 150 μm. […] Scale bar represents 150 μm. FIG. 8D is a graph of a dose response curve.
(§1) To further validate the function of the synthesized peptide, SEQ ID NO: 17, a phagocytosis assay using SEQ ID NO: 17 in THP-1 cells (FIG. 8A, FIG. 8B, FIG. 8C, and FIG. 8D), and in RAW 264.7 cells (FIG. 9A and FIG. 9B), was performed. […] A dose response curve for SEQ ID NO: 17 in THP-1 cells was generated (FIG. 8D). […] A dose response curve for SEQ ID NO: 17 in RAW 264.7 cells was generated (FIG. 9B).

RAW 264.7 cells = experiment: RAW phagocytosis assay with carboxylate beads; type: cell-based, mouse; conditions: across a range of doses
Method: In FIG. 9A, cells were plated on a 96 well plate and treatments were performed with carboxylate beads. Statistics were performed using a one-way ANOVA, followed by a multiple comparison test comparing each treatment to the “untreated” control (p>0.05=*, p>0.01=**, p>0.001=***, p>0.0001=****). In FIG. 9B, a dose response curve of a RAW phagocytosis assay was performed using mouse macrophages RAW cells with cytochalasin D as a control, and graphed in log scale.
as §1

THP-1 cells [3] = experiment: Autophagy assay (autophagosome formation) in THP-1 cells; type: cell-based; conditions: labeled autophagosomes, Hoechst nuclear stain
From the text: In FIG. 11B, autophagosomes are labeled and Hoechst stain is used for nuclear staining.

Tim-4 = target: T1, Tim-4 (Homo sapiens, UniProt Q96H15); experiment: Binding to Tim-4 (identification of binders)
T1 sequence (Q96H15 25-378): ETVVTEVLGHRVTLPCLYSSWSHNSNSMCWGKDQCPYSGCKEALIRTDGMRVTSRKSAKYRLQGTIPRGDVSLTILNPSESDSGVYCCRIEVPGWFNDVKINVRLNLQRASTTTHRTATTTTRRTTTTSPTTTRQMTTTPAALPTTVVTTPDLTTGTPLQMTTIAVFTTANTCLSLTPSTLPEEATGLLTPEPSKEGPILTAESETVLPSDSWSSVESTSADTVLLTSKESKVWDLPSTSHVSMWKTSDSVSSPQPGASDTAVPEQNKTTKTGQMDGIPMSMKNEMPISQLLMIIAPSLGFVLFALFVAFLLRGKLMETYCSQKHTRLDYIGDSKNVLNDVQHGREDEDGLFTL

KVAVMTMAEANRRGTYSS [SEQ ID NO: 3]
inhibition of phagocytosis (RFU) (THP-1 cells [1]): significantly inhibited phagocytosis
inhibition of phagocytosis (RFU) (Tim4-Hek293-FT cells): inhibit phagocytosis; also recorded: limit phagocytosis

QCYANHMYCNDSIAVYHFQM [SEQ ID NO: 17]
inhibition of phagocytosis with phosphatidylserine lipid microparticles compared to carboxylate beads (dose response curves) (THP-1 cells [1]): greater inhibition
inhibition of phagocytosis (THP-1 cells [2]): inhibited phagocytosis
inhibition of phagocytosis (THP-1 cells [2]; listed as 116-117 3E): inhibits phagocytosis
phagocytosis of the phosphatidylserine bead (immunofluorescence image) (Tim4-Hek293-FT cells; Tim4-Hek293-FT cells fixed, immunolabeled against Tim-4, DAPI): reduced ability of phagocytosis
inhibition of phagocytosis (RFU) (Tim4-Hek293-FT cells): inhibited phagocytosis
inhibition of phagocytosis (RFU) (Tim4-Hek293-FT cells; listed as 116-117 3E): inhibits phagocytosis
inhibition of phagocytosis (RAW 264.7 cells): inhibited phagocytosis
autophagosome formation (THP-1 cells [3]): reduces autophagosome formation
binding to Tim-4 (Tim-4): bound to Tim4

QTLAFAYNDSDWFEVYKG [156-1G]
inhibition of phagocytosis (RFU) (THP-1 cells [1]): significantly inhibited phagocytosis
